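Step 1: Grow cells in 96-well plates. Step 2: Expose to compound for 48 hours at 5 concentrations. Step 3: Interpolate endpoints linearly; if unreached, use highest concentration. GI50 = concentration required for 50% inhibition of growth.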 The source made the active and inactive calls. Cut-off read from the data, not from the text of the source: active = GI50 up to about 1.1 µM and inactive = higher.
Tests used:
Experiment in all cases: growth of human tumour cells (NCI), 48 h
Hs-578T = system: Hs-578T
U-251 = system: U-251
LOX IMVI = system: LOX IMVI
OVCAR-3 = system: OVCAR-3
EKVX = system: EKVX
A498 = system: A498
CAKI-1 = system: CAKI-1
RPMI-8226 = system: RPMI-8226
PC-3 = system: PC-3
MDA-MB-231 = system: MDA-MB-231
SK-MEL-5 = system: SK-MEL-5
HT-29 = system: HT-29
SN12C = system: SN12C
SK-MEL-28 = system: SK-MEL-28
SF-295 = system: SF-295
HCT-15 = system: HCT-15
SF-268 = system: SF-268
HCC 2998 = system: HCC 2998
ACHN = system: ACHN
MDA-MB-435 = system: MDA-MB-435
HOP-62 = system: HOP-62
OVCAR-8 = system: OVCAR-8
SK-OV-3 = system: SK-OV-3
HL-60 = system: HL-60
HCT-116 = system: HCT-116
IGROV-1 = system: IGROV-1
786-0 = system: 786-0
SR = system: SR
SW-620 = system: SW-620
HOP-92 = system: HOP-92
KM12 = system: KM12
NCI/ADR-RES = system: NCI/ADR-RES
T47D = system: T47D
OVCAR-5 = system: OVCAR-5
TK-10 = system: TK-10
OVCAR-4 = system: OVCAR-4
DU-145 = system: DU-145
RXF 393 = system: RXF 393
SNB-75 = system: SNB-75
M14 = system: M14
UACC-257 = system: UACC-257
MDA-N = system: MDA-N
A549 = system: A549
NCI-H522 = system: NCI-H522
K562 = system: K562
Malme-3M = system: Malme-3M
MCF7 = system: MCF7
UACC-62 = system: UACC-62
SK-MEL-2 = system: SK-MEL-2
UO-31 = system: UO-31
NCI-H226 = system: NCI-H226
MOLT-4 = system: MOLT-4
CCRF-CEM = system: CCRF-CEM
NCI-H23 = system: NCI-H23
NCI-H460 = system: NCI-H460
COLO 205 = system: COLO 205
BT-549 = system: BT-549
SF-539 = system: SF-539
SNB-19 = system: SNB-19
KM-20L2 = system: KM-20L2
DMS-273 = system: DMS-273
M19-MEL = system: M19-MEL
DLD-1 = system: DLD-1
HOP-18 = system: HOP-18
SNB-78 = system: SNB-78

## N#Cc1c(Cl)cc(Cl)n2c1nc1ccccc12
Hs-578T
  GI50: 11 µM (inactive)
U-251
  GI50: 20 µM (inactive)
LOX IMVI
  GI50: 6.84 µM (inactive)
OVCAR-3
  GI50: 6 µM (inactive)
EKVX
  GI50: 23.1 µM (inactive)
A498
  GI50: 22 µM (inactive)
CAKI-1
  GI50: 3.43 µM (inactive)
RPMI-8226
  GI50: 4.27 µM (inactive)
PC-3
  GI50: 14.3 µM (inactive)
MDA-MB-231
  GI50: 6.49 µM (inactive)
SK-MEL-5
  GI50: 14.3 µM (inactive)
HT-29
  GI50: 7.55 µM (inactive)
SN12C
  GI50: 15.3 µM (inactive)
SK-MEL-28
  GI50: 7.35 µM (inactive)
SF-295
  GI50: 17.3 µM (inactive)
HCT-15
  GI50: 3.43 µM
SF-268
  GI50: 14.1 µM (inactive)
HCC 2998
  GI50: 2.51 µM (inactive)
ACHN
  GI50: 2.64 µM (inactive)
MDA-MB-435
  GI50: 11.5 µM (inactive)
HOP-62
  GI50: 22.9 µM (inactive)
OVCAR-8
  GI50: 15.3 µM (inactive)
SK-OV-3
  GI50: 16.9 µM (inactive)
HL-60
  GI50: 1.31 µM (inactive)
HCT-116
  GI50: 4.74 µM (inactive)
IGROV-1
  GI50: 8.05 µM (inactive)
786-0
  GI50: 2.86 µM (inactive)
SR
  GI50: 5.18 µM (inactive)
SW-620
  GI50: 3.15 µM (inactive)
HOP-92
  GI50: 4.85 µM (inactive)
KM12
  GI50: 18.3 µM (inactive)
NCI/ADR-RES
  GI50: 12.6 µM (inactive)
T47D
  GI50: 5.64 µM (inactive)
OVCAR-5
  GI50: 20 µM (inactive)
TK-10
  GI50: 6.68 µM (inactive)
OVCAR-4
  GI50: 10.4 µM (inactive)
DU-145
  GI50: 14.3 µM (inactive)
RXF 393
  GI50: 13.2 µM (inactive)
SNB-75
  GI50: 14 µM (inactive)
M14
  GI50: 8.53 µM (inactive)
UACC-257
  GI50: 10.3 µM (inactive)
MDA-N
  GI50: 10.1 µM (inactive)
A549
  GI50: 17.3 µM (inactive)
NCI-H522
  GI50: 2.29 µM (inactive)
K562
  GI50: 2.61 µM (inactive)
Malme-3M
  GI50: 2.76 µM (inactive)
MCF7
  GI50: 4.66 µM (inactive)
UACC-62
  GI50: 12.6 µM (inactive)
SK-MEL-2
  GI50: 17.6 µM (inactive)
UO-31
  GI50: 3.63 µM (inactive)
NCI-H226
  GI50: 13.8 µM (inactive)
MOLT-4
  GI50: 3.21 µM (inactive)
CCRF-CEM
  GI50: 2.49 µM (inactive)
NCI-H23
  GI50: 18.2 µM (inactive)
NCI-H460
  GI50: 8 µM (inactive)
COLO 205
  GI50: 3.52 µM (inactive)
BT-549
  GI50: 6.38 µM (inactive)
SF-539
  GI50: 4.47 µM (inactive)
SNB-19
  GI50: 22 µM (inactive)

## c1ccncc1
U-251
  GI50: > 100 µM (inactive)
OVCAR-3
  GI50: > 100 µM (inactive)
EKVX
  GI50: > 100 µM (inactive)
A498
  GI50: > 100 µM (inactive)
CAKI-1
  GI50: > 100 µM (inactive)
RPMI-8226
  GI50: > 100 µM (inactive)
SK-MEL-5
  GI50: > 100 µM (inactive)
HT-29
  GI50: > 100 µM (inactive)
SK-MEL-28
  GI50: > 100 µM (inactive)
SF-295
  GI50: > 100 µM (inactive)
HCC 2998
  GI50: > 100 µM (inactive)
HOP-62
  GI50: > 100 µM (inactive)
OVCAR-8
  GI50: > 100 µM (inactive)
SK-OV-3
  GI50: > 100 µM (inactive)
HL-60
  GI50: > 100 µM (inactive)
HCT-116
  GI50: > 100 µM (inactive)
IGROV-1
  GI50: > 100 µM (inactive)
786-0
  GI50: > 100 µM (inactive)
SW-620
  GI50: > 100 µM (inactive)
HOP-92
  GI50: > 100 µM (inactive)
KM12
  GI50: > 100 µM (inactive)
OVCAR-5
  GI50: > 100 µM (inactive)
TK-10
  GI50: > 100 µM (inactive)
OVCAR-4
  GI50: > 100 µM (inactive)
RXF 393
  GI50: > 100 µM (inactive)
SNB-75
  GI50: > 100 µM (inactive)
M14
  GI50: > 100 µM (inactive)
KM-20L2
  GI50: > 100 µM (inactive)
UACC-257
  GI50: > 100 µM (inactive)
NCI-H522
  GI50: > 100 µM (inactive)
K562
  GI50: > 100 µM (inactive)
UACC-62
  GI50: > 100 µM (inactive)
SK-MEL-2
  GI50: > 100 µM (inactive)
UO-31
  GI50: > 100 µM (inactive)
MOLT-4
  GI50: > 100 µM (inactive)
CCRF-CEM
  GI50: > 100 µM (inactive)
NCI-H460
  GI50: > 100 µM (inactive)
COLO 205
  GI50: > 100 µM (inactive)
SNB-19
  GI50: > 100 µM (inactive)

## C[C@]12CC[C@@H]3c4ccc(OC(=O)N(CCCl)CCCl)cc4CC[C@H]3[C@@H]1CC[C@@H]2O [ESTRAMUSTINE]
U-251
  GI50: 1.78 µM (inactive)
EKVX
  GI50: 0.025 µM (active)
CAKI-1
  GI50: 0.025 µM (active)
HT-29
  GI50: 0.025 µM (active)
SN12C
  GI50: 0.025 µM (active)
SK-MEL-28
  GI50: 0.025 µM (active)
HCT-15
  GI50: 0.025 µM
SF-268
  GI50: 0.025 µM (active)
HOP-62
  GI50: 0.025 µM (active)
OVCAR-8
  GI50: 0.025 µM (active)
SK-OV-3
  GI50: 0.025 µM (active)
HL-60
  GI50: 0.025 µM (active)
IGROV-1
  GI50: 0.025 µM (active)
SW-620
  GI50: 0.025 µM (active)
HOP-92
  GI50: 0.025 µM (active)
OVCAR-5
  GI50: 0.025 µM (active)
DMS-273
  GI50: 2.5 µM (inactive)
M19-MEL
  GI50: 0.025 µM (active)
A549
  GI50: 0.025 µM (active)
K562
  GI50: 0.025 µM (active)
DLD-1
  GI50: 0.025 µM (active)
MCF7
  GI50: 0.025 µM (active)
HOP-18
  GI50: 6.04 µM (inactive)
CCRF-CEM
  GI50: 0.025 µM (active)
NCI-H23
  GI50: 0.025 µM (active)
SNB-78
  GI50: 0.025 µM (active)
SNB-19
  GI50: 0.025 µM (active)
